Tested on: rabbit skeletal myofibrils (approximately 90% fast fibers)
Assay: Activation of fast skeletal myofibrils (PUMA coupled-enzyme ATPase assay)
Assay type: biochemical
Conditions: concentration at which the compound increased the enzymatic activity by 40%; calcium at pCa25; PM12 buffer pH 6.8
Outline: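 Rabbit psoas myofibrils (Triton-washed, ~90% fast fibers) at calcium giving 25% of maximal ATPase rate (pCa25). ADP regenerated via pyruvate kinase/lactate dehydrogenase coupling, NADH oxidation read as absorbance at 340 nm. Buffer 12 mM PIPES, 2 mM MgCl2, 1 mM DTT, pH 6.8.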

Row | AC1.4 [µM] | Compound
1 | 0.13 | CCC[C@H]1C(=O)Nc2ccccc2N1C(=O)c1cnn(C)c1 [Compound 13, (S)-4-(1-methyl-1H-pyrazole-4-carbonyl)-3-propyl-3,4-dihydroquinoxalin-2(1H)-one]
2 | 1.46 | CCC[C@H]1C(=O)Nc2ccccc2N1C(=O)CCc1ccccc1 [Compound 19, (S)-4-(3-phenylpropanoyl)-3-propyl-3,4-dihydroquinoxalin-2(1H)-one]
3 | 2.61 | CCC[C@H]1C(=O)Nc2ccccc2N1C(=O)c1ccc(N(C)CCC(F)(F)F)nc1 [Compound 44, (S)-4-(6-(methyl(3,3,3-trifluoropropyl)amino)nicotinoyl)-3-propyl-3,4-dihydroquinoxalin-2(1H)-one]
4 | 0.46 | CCC[C@H]1C(=O)Nc2ccccc2N1C(=O)c1cc2cccn2cn1 [Compound 70, (S)-3-propyl-4-(pyrrolo[1,2-c]pyrimidine-3-carbonyl)-3,4-dihydroquinoxalin-2(1H)-one]
5 | 0.08 | CC[C@H](C)[C@H]1C(=O)Nc2ccccc2N1C(=O)c1ccc(N)nc1 [Compound 74, (S)-4-(6-aminonicotinoyl)-3-((S)-sec-butyl)-3,4-dihydroquinoxalin-2(1H)-one]
6 | 0.82 | CCC[C@H]1C(=O)Nc2ccccc2N1C(=O)Nc1ccccc1C [Compound 60, (S)-3-oxo-2-propyl-N-(o-tolyl)-3,4-dihydroquinoxaline-1(2H)-carboxamide]
7 | 0.65 | CCC[C@H]1C(=O)Nc2ccccc2N1C(=O)c1ccc(NCc2ccccc2)nc1 [Compound 36, (S)-4-(6-(benzylamino)nicotinoyl)-3-propyl-3,4-dihydroquinoxalin-2(1H)-one]
8 | 0.2 | CCC[C@H]1C(=O)Nc2ccccc2N1C(=O)c1cn(C)nc1C [Compound 45, (S)-4-(1,3-dimethyl-1H-pyrazole-4-carbonyl)-3-propyl-3,4-dihydroquinoxalin-2(1H)-one]
9 | 0.05 | CC[C@H](C)[C@H]1C(=O)Nc2ccccc2N1C(=O)c1ccc(=O)[nH]c1 [Compound 75, (S)-3-((S)-sec-butyl)-4-(6-oxo-1,6-dihydropyridine-3-carbonyl)-3,4-dihydroquinoxalin-2(1H)-one]
10 | 1.63 | CCC[C@H]1C(=O)Nc2ccccc2N1C(=O)c1ccc(N2CCC(F)C2)nc1 (stereo partly drawn) [Compound 41, (3S)-4-(6-(3-fluoropyrrolidin-1-yl)nicotinoyl)-3-propyl-3,4-dihydroquinoxalin-2(1H)-one]

Continued, compound first:

Row | Compound | AC1.4 [µM]
11 | CC(C)[C@H]1C(=O)Nc2cnccc2N1C(=O)c1cnn(C)c1 [Compound 88, (S)-2-isopropyl-1-(1-methyl-1H-pyrazole-4-carbonyl)-1,4-dihydropyrido[3,4-b]pyrazin-3(2H)-one] | 0.85
12 | CC[C@H](C)[C@H]1C(=O)Nc2cnccc2N1C(=O)c1cnn(C)c1 [Compound 89, (S)-2-((S)-sec-butyl)-1-(1-methyl-1H-pyrazole-4-carbonyl)-1,4-dihydropyrido[3,4-b]pyrazin-3(2H)-one] | 0.23
13 | CC(C)[C@H]1C(=O)Nc2ccccc2N1C(=O)c1cnn(C2CC2)c1 [Compound 84, (S)-4-(1-cyclopropyl-1H-pyrazole-4-carbonyl)-3-isopropyl-3,4-dihydroquinoxalin-2(1H)-one] | 0.29
14 | CC[C@H](C)[C@H]1C(=O)Nc2ccccc2N1C(=O)N[C@H]1CCNC1 [Compound 126, (S)-2-((S)-sec-butyl)-3-oxo-N-((S)-pyrrolidin-3-yl)-3,4-dihydroquinoxaline-1(2H)-carboxamide] | 1.53
15 | CC[C@H](C)[C@H]1C(=O)Nc2ccccc2N1C(=O)N[C@H]1CCN(C)C1 [Compound 129, (S)-2-((S)-sec-butyl)-N-((S)-1-methylpyrrolidin-3-yl)-3-oxo-3,4-dihydroquinoxaline-1(2H)-carboxamide] | 1.3
16 | CC[C@H](C)[C@H]1C(=O)Nc2ccccc2N1C(=O)N(C)CCCO [Compound 115, (S)-2-((S)-sec-butyl)-N-(3-hydroxypropyl)-N-methyl-3-oxo-3,4-dihydroquinoxaline-1(2H)-carboxamide] | 2.29
17 | CC[C@H](C)[C@H]1C(=O)Nc2cncnc2N1C(=O)c1cnn(C)c1 [Compound 94, (S)-7-((S)-sec-butyl)-8-(1-methyl-1H-pyrazole-4-carbonyl)-7,8-dihydropteridin-6(5H)-one] | 1.66
18 | CC[C@H](C)[C@H]1C(=O)Nc2ccccc2N1C(=O)NC [Compound 102, (S)-2-((S)-sec-butyl)-N-methyl-3-oxo-3,4-dihydroquinoxaline-1(2H)-carboxamide] | 0.94
19 | CC[C@H](C)[C@H]1C(=O)Nc2ccccc2N1C(=O)N1CC(O)C1 [Compound 101, (S)-3-((S)-sec-butyl)-4-(3-hydroxyazetidine-1-carbonyl)-3,4-dihydroquinoxalin-2(1H)-one] | 2.1

Tested on: ankle plantarflexor muscle contractile force
Assay: Rat isometric ankle plantarflexor muscle force
Assay type: in vivo, Sprague Dawley rats
Conditions: estimated concentration at which muscle force is 50% of pre-dose maximum tension, 30 Hz stimulation, continuous intravenous infusion over sixty minutes, female rats
Excerpt: Female Sprague Dawley rats were placed under a stable anesthesic plane with inhaled isoflurane (1-5%). One incision was made on the mid-thigh region of the right leg to expose the sciatic nerve. To prevent co-contraction of the ankle dorsiflexors, an additional incision was made lateral to the patella to isolate and sever the peroneal nerve. Rats were then placed on a temperature-maintained in situ muscle analysis rig (Aurora Scientific, Model 806C). The knee was immobilized in a clamp between two sharpened screws and the foot was taped to a footplate attached to a force transducer (Aurora Scientific, Ontario, Canada). Stainless steel needle electrodes (0.10 mm) were hooked around the exposed sciatic nerve. Isometric ankle plantarflexor muscle contractile force was assessed with the ankle joint at 90° flexion. A 30 Hz electrical stimulation (under supramaximal voltage conditions) was applied to the nerve and the resulting muscle force was recorded via a servomotor. A pre-dose 30 Hz force response was established as the baseline force. A pre-dose 150 Hz force response was established as the maximum isometric force. Compounds were formulated in 50% polyethylene glycol (PEG): 16% Cavitron: 10% dimethylacetamide (DMA) and administered by continuous intravenous infusion over a sixty minute period. The muscle force response to compound was measured every two minutes over the dosing period. Data were reported as an estimated EC50 value, which is the concentration at which muscle force is 50% of the pre-dose maximum tension. In Table 4, “Example Compound” refers to the compound labeled with the same number in Table 2.

Row | Compound | EC50 [µM]
20 | CC(C)[C@H]1C(=O)Nc2cnccc2N1C(=O)c1cnn(C)c1 [Compound 88, (S)-2-isopropyl-1-(1-methyl-1H-pyrazole-4-carbonyl)-1,4-dihydropyrido[3,4-b]pyrazin-3(2H)-one] | 20.1
21 | CC[C@H](C)[C@H]1C(=O)Nc2cnccc2N1C(=O)c1cnn(C)c1 [Compound 89, (S)-2-((S)-sec-butyl)-1-(1-methyl-1H-pyrazole-4-carbonyl)-1,4-dihydropyrido[3,4-b]pyrazin-3(2H)-one] | 23.9
22 | CCC[C@H]1C(=O)Nc2ccccc2N1C(=O)c1cnn(C)c1 [Compound 13, (S)-4-(1-methyl-1H-pyrazole-4-carbonyl)-3-propyl-3,4-dihydroquinoxalin-2(1H)-one] | 15.7
